Values quoted from earlier work as cited in patent US12606918B2, “Production of sanitizing fluid using in situ electrolysis” (APPLIED PHAGE GMBH, priority 2024, dated 2026).
Like-named read-outs stand apart in the source and are kept apart here.

## [O-][Cl+2]([O-])O [chlorate]
As ClO3^−
  ADI (allowable daily intake): 0.0024 mg/kg BW·day
As NaClO3
  ADI (allowable daily intake): 0.003 mg/kg BW·day
  Arfd (acute reference dose): 0.003 mg/kg BW·day
